Legend:
PI3K/Akt pathway = settings: cited from earlier work
periampullary cancer = assay: Preventive consumption of phytin by the patient before the diagnosis; type: in vivo, human; settings: 1.4 g/day phytin solubilized in citric acid, oral, for 5 years before diagnosis
Description: Before their admission to emergency department, the patient consumed, on a regular basis, with a view to prevention and for 5 years as an oral food supplement, 1.4 g/day of phytin solubilized in citric acid.

[1] = system: invasive ductal breast cancer; settings: 6 g/d in addition to chemotherapy, six months, 14 patients; cited from earlier work
[2] = system: mammary tumor cell line MCF-7; assay: In vitro antitumor activity on MCF-7, noted by the inventor; type: cell-based, human; settings: MCF-7 strain

## O=P(O)(O)O[C@@H]1[C@@H](OP(=O)(O)O)[C@H](OP(=O)(O)O)[C@H](O)[C@H](OP(=O)(O)O)[C@H]1OP(=O)(O)O [myo-inositol 1,3,4,5,6 pentakis phosphate]
PI3K/Akt pathway
  antitumor activity compared with phytin: higher than that of phytin
PI3K/Akt pathway; concentration of 50 μM
  anti-angiogenic action: anti-angiogenic action by inhibiting the PI3K/Akt pathway

## phytin
Periampullary cancer
  antitumor activity in human in the absence of magnesium chloride: does not have antitumor activity in human
[1]
  cytopenia (leucocyte and platelet quantitative deficiency): preserved from cytopenia
  tumor progression: no impact on tumor progression

## O[C@H]1[C@H](O)[C@@H](O)[C@H](O)[C@@H](O)[C@H]1O [myo-inositol]
[2]
  in vitro antitumor action: no in vitro antitumor action
